These results are taken from US6346518B1, “Itraconazole and saperconazole stereoisomers” (Janssen Pharmaceutica N.V., priority 1995, dated 2002).

Data set [1] can be described thus: solubility in water in the absence or presence of 2-hydroxypropyl-β-cyclodextrin (saturated solutions, UV spectrometry). Particulars: ambient temperature. Type of data set: physicochemical. The protocol:
A 10 ml stock solution comprising 0, 2.5, 5, 7.5, 10, 20, 30 or 40% (weight by volume) 2-hydroxypropyl-β-cyclodextrin (M.S.=0.4) was put in a 20 ml tinted vial. To each vial there was added a quantity of itraconazole or saperconazole sufficient to yield a saturated solution. The vials were sonicated for 10 minutes and all vials were checked to ascertain that an undissolved remnant remained Where all the material had dissolved, another quantity of the material was added The vials were closed and protected from light by wrapping them in aluminum foil. The vials were then shaken in an appropriate apparatus. 24Hours later the vials were checked again to ascertain that an undissolved remnant of the material remained and where necessary a further quantity of the material was added. The vials were shaken for at least 72 hours and then allowed to stand until all undissolved material had precipitated. The vials were opened and the pH of the saturated solutions was measured. An aliquot of the supernatant solution was filtered and the amount of dissolved active ingredient was measured by UV spectrometry (255 nm), if necessary after diluting said aliquot to a concentration suitable for UV spectrometry.

For data set [2] the following is noted: cited from earlier work.
Data set [3] is described as follows: solubility in artificial gastric juice. The data set is classed as physicochemical. Particulars: ambient temperature. As for the experimental part:
About 10 mg of either product was added to 100 ml artificial gastric juice (0.2 g NaCL+0.7 ml concentrated HCl diluted to 100 ml) at ambient temperature. The mixture was stirred and a sample was taken from each solution at regular intervals. The amount of dissolved active ingredient was determined following the procedure described in the previous example.

For another data set, the system named is Aspergillus spp. Particulars: compared with itraconazole; U.S. Pat. No. 4,916,134; cited from earlier work.
[4] abbreviates: 2-hydroxypropyl-β-cyclodextrin concentration 2.5%.
[5] abbreviates: 2-hydroxypropyl-β-cyclodextrin concentration 5%.
The mark [6] stands for this setting: 2-hydroxypropyl-β-cyclodextrin concentration 7.5%.
Where [7] appears, read: 2-hydroxypropyl-β-cyclodextrin concentration 10%.
Setting [8] is: 2-hydroxypropyl-β-cyclodextrin concentration 20%.
Where [9] appears, read: 2-hydroxypropyl-β-cyclodextrin concentration 30%.
[10] abbreviates: 2-hydroxypropyl-β-cyclodextrin concentration 40%.

For “(+)-[2R-[2α,4α, 4(R)]]-4-[4-[4-[4[[dichlorophenyl)-2-(1H-1,2,4-triazol-1-ylmethyl)-1,3-dioxolan-4-yl]methoxy]phenyl]-1-piperazinyl]phenyl]-2,4-dihydro-2-(1-methylpropyl)-3H-1,2,4-triazol-3-one [Compound 4]”, the concentration in water in data set [1] (setting [4]) is recorded as 2.43 mg/100 ml; in data set [1] (setting [5]) it was 15.84 mg/100 ml; in data set [1] (setting [6]) it was 41.70 mg/100 ml; in data set [1] (setting [7]), 83.72 mg/100 ml; in data set [1] (setting [8]), 481 mg/100 ml; in data set [1] (setting [9]) it was 1166 mg/100 ml. In data set [1] (setting [10]), the concentration in water is on record as 2017 mg/100 ml.
As for `CCC(C)n1ncn(-c2ccc(N3CCN(c4ccc(OCC5COC(Cn6cncn6)(c6ccc(Cl)cc6Cl)O5)cc4)CC3)cc2)c1=O` (racemic) [itraconazole, (±)-cis-4-[4-[4-[4-[[2-(2,4-dichlorophenyl)-2-(1H-1,2,4-triazol-1-ylmethyl)-1,3-dioxolan-4-yl]methoxy]phenyl]-1-piperazinylphenyl]-2,4-dihydro-2-(1-methyl-propyl)-3H-1,2,4-triazol-3-one], the solubility in water entry in data set [2] was “only very sparingly soluble in water”. The concentration in water in data set [1] (setting [4]) worked out at 0.36 mg/100 ml; in data set [1] (setting [5]), 1.79 mg/100 ml; in data set [1] (setting [6]), 4.74 mg/100 ml; in data set [1] (setting [7]) it was 10.28 mg/100 ml; in data set [1] (setting [8]), 50 mg/100 ml; in data set [1] (setting [9]) it was 95 mg/100 ml. Moreover, the concentration in water in data set [1] (setting [10]) is reported as 174 mg/100 ml. The “concentration of dissolved active ingredient” value came out at 0.023 mg/100 ml in data set [3] (1 h.); 0.079 mg/100 ml in data set [3] (2 h.); 0.15 mg/100 ml in data set [3] (3 h.); 0.19 mg/100 ml in data set [3] (4 h.); 0.27 mg/100 ml in data set [3] (6 h.); 0.40 mg/100 ml in data set [3] (26 h.). Further, the entries for the “concentration of dissolved active ingredient” value in data set [3] (46 h.), in data set [3] (51 h.) and in data set [3] (69 h.) were 0.40 mg/100 ml, 0.41 mg/100 ml and 0.45 mg/100 ml, respectively.
For the compound `CCC(C)n1ncn(-c2ccc(N3CCN(c4ccc(OCC5COC(Cn6cncn6)(c6ccc(F)cc6F)O5)cc4)CC3)cc2)c1=O` (racemic) [saperconazole, (±)-cis-4-[4-[4-[4-[[2-(2,4-difluorophenyl)-2-(1H-2,4-triazol-1-yl-methyl)-1,3-dioxolan-4-yl]methoxylphenyl]-1-piperazinyl]-phenyl]-2,4-dihydro-2-(1-methylpropyl)-3H-1,2,4-triazol-3-one], the “activity against Aspergillus spp.” value in the data set on Aspergillus spp. is listed as “improved activity against Aspergillus spp”. Besides, in data set [2], the solubility in water entry was “only very sparingly soluble in water”.
Turning to “(+)-[2S-[2α, 4α, 4(R)]1-4-[4-[4-[4-[[2-(2,4-dichlor triazol-1-ylmethyl)-1,3-dioxolan-4-yl]methoxy]phenyl]-1-piperazinyl]phenyl]-2,4-dihydro-2-(1-methylpropyl)-3H-1,2,4-triazol-3-one [Compound 3]”, the “concentration of dissolved active ingredient” value in data set [3] (5 min.) amounted to 0.005 mg/100 ml; in data set [3] (15 min.), 0.037 mg/100 ml; in data set [3] (30 min.), 0.15 mg/100 ml; in data set [3] (1 h.) it was 0.32 mg/100 ml; in data set [3] (2 h.), 0.69 mg/100 ml; in data set [3] (3 h.), 1.09 mg/100 ml. In addition, the “concentration of dissolved active ingredient” value is listed as 1.41 mg/100 ml in data set [3] (4 h.); 1.94 mg/100 ml in data set [3] (6 h.); 3.93 mg/100 ml in data set [3] (26 h.); 5.08 mg/100 ml in data set [3] (46 h.); 5.39 mg/100 ml in data set [3] (51 h.); 6.36 mg/100 ml in data set [3] (69 h.).
In the case of “(−)-[2S-[2α, 4α, 4(S)[[-4-[4-[4-[4-[[2-(2,4-dichlorophenyl-2(1H-1,2,4-triazol-1-ylmethyl)-1,3-dioxolan-4-yl]methoxy]phenyl]-1-piperazinyl]phenyl ]-2,4-dihydro-2-(1-methylpropyl)-3H-1,2,4-triazol-3-one [Compound 2]”, the concentration in water is 3.58 mg/100 ml in data set [1] (setting [4]); 16.36 mg/100 ml in data set [1] (setting [5]); 41.39 mg/100 ml in data set [1] (setting [6]); 78.16 mg/100 ml in data set [1] (setting [7]); 332 mg/100 ml in data set [1] (setting [8]); 846 mg/100 ml in data set [1] (setting [9]). For the same compound, the concentration in water in data set [1] (setting [10]) is on record as 1720 mg/100 ml.
